In patent US8268881B2, “Carboxamide derivatives as muscarinic receptor antagonists” (Pfizer Limited, priority 2005, dated 2012):

The compounds below were run against T1, human muscarinic M3 receptor (Homo sapiens, UniProt P20309) (assay: hM3 β-Lac potency assay (cell based β-lactamase)). Details: not given.
T1 construct: expressed in transfected cells
Procedure: M3 potency was determined in CHO-K1 cells transfected with the NFAT-Betalactamase gene. CHO (Chinese Hamster Ovary) cells recombinantly expressing the human muscarinic M3 receptor were transfected with the NFAT_β-Lac_Zeo plasmid.
The cells were re-suspended at 2×10^5 cells/ml in growth medium (composition as described above). […] Inhibition curves were plotted and IC50 values generated using a 4-parameter sigmoid fit and converted to Ki values using the Cheng-Prusoff correction and the KD value for carbamyl choline in the assay.

T1 sequence (P20309 whole entry): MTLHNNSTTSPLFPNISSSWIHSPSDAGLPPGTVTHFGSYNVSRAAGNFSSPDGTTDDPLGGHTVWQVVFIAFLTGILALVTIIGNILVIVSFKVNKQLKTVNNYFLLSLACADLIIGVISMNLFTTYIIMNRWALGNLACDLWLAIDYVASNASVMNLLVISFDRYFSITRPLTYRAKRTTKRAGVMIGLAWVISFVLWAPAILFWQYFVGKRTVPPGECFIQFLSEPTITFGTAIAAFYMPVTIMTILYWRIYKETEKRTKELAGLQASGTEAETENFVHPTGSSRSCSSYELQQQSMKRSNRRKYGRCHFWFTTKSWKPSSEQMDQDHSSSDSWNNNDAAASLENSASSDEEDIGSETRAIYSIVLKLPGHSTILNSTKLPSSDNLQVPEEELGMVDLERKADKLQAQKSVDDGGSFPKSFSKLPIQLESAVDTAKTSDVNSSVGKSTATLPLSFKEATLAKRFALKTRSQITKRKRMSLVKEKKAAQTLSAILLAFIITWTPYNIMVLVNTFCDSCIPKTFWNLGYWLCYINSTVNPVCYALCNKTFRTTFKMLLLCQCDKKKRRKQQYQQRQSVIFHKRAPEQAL

`CC(C)(CCC(C(N)=O)(c1ccccc1)c1ccccc1)N1CC[C@H](Oc2ccc(Cl)cc2O)C1` [Example 36, 5-[(3S)-3-(4-Chloro-2-Hydroxy-phenoxy)-pyrrolidin-1-yl]-5-methyl-2,2-diphenyl-hexanoic acid amide] was tested, and the Ki was 17.6 nM.

Same assay, conditions: CHO cells expressing human M3 receptor, NFAT β-lactamase reporter; […]; IC50 converted to Ki by Cheng-Prusoff; read-out: Cell based β-lactamase M3 Ki

For `CC(C)(CCC(C#N)(c1ccccc1)c1ccccc1)N1CC[C@H](Oc2ccccc2)C1` [Example 1, 5-Methyl-5-[(3S)-3-phenoxypyrrolidin-1-yl]-2,2-diphenylhexanenitrile], the Ki was 8.34 nM.

Same assay, conditions: CHO cells expressing human M3 receptor, NFAT β-lactamase reporter; inhibition of 80 nM carbamyl choline signal, 4 h; IC50 converted to Ki by Cheng-Prusoff; read-out: Cell based β-lactamase M3 Ki

Point of comparison: `Cc1cccc(O[C@H]2CCN(C(C)(C)CCC(C(N)=O)(c3ccccc3)c3ccccc3)C2)c1` [Example 14, 5-Methyl-5-[(3S)-3-(3-methylphenoxy)pyrrolidin-1-yl]-2,2-diphenylhexanamide], Ki 1.32 nM. Against it:
- CC(C)(CCC(C(N)=O)(c1ccccc1)c1ccccc1)N1CC[C@@H](Oc2ccccc2)C1 [Example 4, 5-Methyl-5-[(3R)-3-phenoxypyrrolidin-1-yl]-2,2-diphenylhexanamide] — within 1.5-fold, 1.55 nM
- COc1cccc(O[C@H]2CCN(C(C)(C)CCC(C(N)=O)(c3ccccc3)c3ccccc3)C2)c1 [Example 6, 5-[(3S)-3-(3-methoxyphenoxy)pyrrolidin-1-yl]-5-methyl-2,2-diphenylhexanamide] — within 1.5-fold, 1.02 nM
- CC(C)(CCC(C(N)=O)(c1ccccc1)c1ccccc1)N1CC[C@@H](OCc2ccccc2)C1 [Example 9, 5-[(3R)-3-(Benzyloxy)pyrrolidin-1-yl]-5-methyl-2,2-diphenylhexanamide] — within 1.5-fold, 1.87 nM
- CC(C)(CCC(C(N)=O)(c1ccccc1)c1ccccc1)N1CC[C@H](OCc2ccccc2)C1 [Example 11, 5-[(3S)-3-(Benzyloxy)pyrrolidin-1-yl]-5-methyl-2,2-diphenylhexanamide] — 2.5-fold higher, 3.27 nM
- COc1cccc(O[C@@H]2CCN(C(C)(C)CCC(C(N)=O)(c3ccccc3)c3ccccc3)C2)c1 [Example 12, 5-[(3R)-3-(3-Methoxyphenoxy)pyrrolidin-1-yl]-5-methyl-2,2-diphenylhexanamide] — 4.4-fold lower, 0.3 nM
- CC(C)(CCC(C(N)=O)(c1ccccc1)c1ccccc1)N1CC[C@@H](Oc2ccc3ncoc3c2)C1 [Example 15, 5-[(3R)-3-(1,3-Benzoxazol-6-yloxy)pyrrolidin-1-yl]5-methyl-2,2-diphenylhexanamide] — 3.2-fold higher, 4.25 nM
- CC(C)(CCC(C(N)=O)(c1ccccc1)c1ccccc1)N1CC[C@H](Oc2ccc(Cl)cc2)C1 [Example 16, 5-[(3S)-3-(4-Chlorophenoxy)pyrrolidin-1-yl]-5-methyl-2,2-diphenylhexanamide] — within 1.5-fold, 1.85 nM
- CC(C)(CCC(C(N)=O)(c1ccccc1)c1ccccc1)N1CC[C@H](Oc2cccc(Br)c2)C1 [Example 17, 5-[(3S)-3-(3-Bromophenoxy)pyrrolidin-1-yl]-5-methyl-2,2-diphenylhexanamide] — 3.9-fold higher, 5.11 nM
- CC(C)(CCC(C(N)=O)(c1ccccc1)c1ccccc1)N1CC[C@H](Oc2ccc(-c3cccc(O)c3)cc2)C1 [Example 18, 5-{(3S)-3-[(3′-Hydroxybiphenyl-4-yl)oxy]pyrrolidin-1-yl}-5-methyl-2,2-diphenylhexanamide] — 5.3-fold higher, 6.96 nM
- CC(C)(CCC(C(N)=O)(c1ccccc1)c1ccccc1)N1CC[C@H](Oc2cccc(-c3cccc(O)c3)c2)C1 [Example 19, 5-{(3S)-3-[(3′-Hydroxybiphenyl-3-yl)oxy]pyrrolidin-1-yl}-5-methyl-2,2-diphenylhexanamide] — 4.2-fold higher, 5.56 nM
- CC(C)(CCC(C(N)=O)(c1ccccc1)c1ccccc1)N1CC[C@H](Oc2ccc3cc(O)ccc3c2)C1 [Example 20, 5-{(3S)-3-[(6-Hydroxy-2-naphthyl)oxy]pyrrolidin-1-yl}-5-methyl-2,2-diphenylhexanamide] — 82-fold higher, 108 nM
- CC(C)(CCC(C(N)=O)(c1ccccc1)c1ccccc1)N1CC[C@H](Oc2ccc(C(F)(F)F)cc2)C1 [Example 24, 5-[(3S)-3-(4-trifluoromethyl-phenoxy)pyrrolidin-1-yl]-5-methyl-2,2-diphenylhexanamide] — 16-fold higher, 20.7 nM
- CC(C)(CCC(C(N)=O)(c1ccccc1)c1ccccc1)N1CC[C@@H](Oc2ccc(C(F)(F)F)cc2)C1 [Example 26, 5-[(3R)-3-(4-trifluoromethyl-phenoxy)pyrrolidin-1-yl]-5-methyl-2,2-diphenylhexanamide] — within 1.5-fold, 1.67 nM
- COc1ccc(O[C@@H]2CCN(C(C)(C)CCC(C(N)=O)(c3ccccc3)c3ccccc3)C2)cc1Cl [Example 28, 5-[(3R)-3-(3-chloro-4-methoxy-phenoxy)pyrrolidin-1-yl]-5-methyl-2,2-diphenylhexanamide] — 36-fold higher, 47.4 nM
- Cc1cc(O)cc(O[C@H]2CCN(C(C)(C)CCC(C(N)=O)(c3ccccc3)c3ccccc3)C2)c1 [Example 29, 5-[(3S)-3-(3-Hydroxy-5-methyl-phenoxy)-pyrrolidin-1-yl]-5-methyl-2,2-diphenyl-hexanoic acid amide] — 1.7-fold higher, 2.26 nM
- Cc1c(O)cccc1O[C@H]1CCN(C(C)(C)CCC(C(N)=O)(c2ccccc2)c2ccccc2)C1 [Example 30, 5-[(3S)-3-(3-Hydroxy-2-methyl-phenoxy)-pyrrolidin-1-yl]-5-methyl-2,2-diphenyl-hexanoic acid amide] — 4-fold lower, 0.333 nM
- CC(C)(CCC(C(N)=O)(c1ccccc1)c1ccccc1)N1CC[C@H](Oc2cc(O)c(Cl)cc2Cl)C1 [Example 31, 5-[(3S)-3-(2,4-Dichloro-5-Hydroxy-phenoxy)-pyrrolidin-1-yl]-5-methyl-2,2-diphenyl-hexanoic acid amide] — 34-fold higher, 45.1 nM
- CC(C)(CCC(C(N)=O)(c1ccccc1)c1ccccc1)N1CC[C@H](Oc2cc(Cl)c(Cl)cc2O)C1 [Example 32, 5-[(3S)-3-(4,5-Dichloro-2-Hydroxy-phenoxy)-pyrrolidin-1-yl]-5-methyl-2,2-diphenyl-hexanoic acid amide] — 28-fold higher, 36.4 nM
- CC(C)(CCC(C(N)=O)(c1ccccc1)c1ccccc1)N1CC[C@H](Oc2cc(O)cc(Cl)c2)C1 [Example 34, 5-[(3S)-3-(3-Chloro-5-hydroxy-phenoxy)-pyrrolidin-1-yl]-5-methyl-2,2-diphenyl-hexanoic acid amide] — 5-fold higher, 6.57 nM
- COc1cc(Cl)ccc1O[C@H]1CCN(C(C)(C)CCC(C(N)=O)(c2ccccc2)c2ccccc2)C1 [Example 35, 5-[(3S)-3-(4-Chloro-2-Methoxy-phenoxy)-pyrrolidin-1-yl]-5-methyl-2,2-diphenyl-hexanoic acid amide] — 5.5-fold higher, 7.28 nM
- COc1cccc(O[C@H]2CCN(C(C)(C)CCC(C(N)=O)(c3ccccc3)c3ccccc3)C2)c1Cl [Example 37, 5-[(3S)-3-(2-Chloro-3-Methoxy-phenoxy)-pyrrolidin-1-yl]-5-methyl-2,2-diphenyl-hexanoic acid amide] — 3.8-fold higher, 5.01 nM
- CC(C)(CCC(C(N)=O)(c1ccccc1)c1ccccc1)N1CC[C@H](Oc2cccc(O)c2Cl)C1 [Example 38, 5-[(3S)-3-(2-Chloro-3-Hydroxy-phenoxy)-pyrrolidin-1-yl]-5-methyl-2,2-diphenyl-hexanoic acid amide] — within 1.5-fold, 0.996 nM
- CC(C)(CCC(C(N)=O)(c1ccccc1)c1ccccc1)N1CC[C@H](Oc2ccc(Cl)c(O)c2)C1 [Example 39, 5-[(3S)-3-(4-Chloro-3-Hydroxy-phenoxy)-pyrrolidin-1-yl]-5-methyl-2,2-diphenylhexanoic acid amide] — within 1.5-fold, 1.97 nM
- CC(C)(CCC(C(N)=O)(c1ccccc1)c1ccccc1)N1CC[C@H](Oc2cc(O)ccc2Cl)C1 [Example 40, 5-[(3S)-3-(2-Chloro-5-Hydroxy-phenoxy)-pyrrolidin-1-yl]-5-methyl-2,2-diphenyl-hexanoic acid amide] — 4.6-fold higher, 6.09 nM
- COc1c(Cl)cccc1O[C@@H]1CCN(C(C)(C)CCC(C(N)=O)(c2ccccc2)c2ccccc2)C1 [Example 42, 5-[(3R)-3-(3-Chloro-2-Methoxy-phenoxy)-pyrrolidin-1-yl]-5-methyl-2,2-diphenyl-hexanoic acid amide] — 17-fold higher, 22.1 nM
- CC(C)(CCC(C(N)=O)(c1ccccc1)c1ccccc1)N1CC[C@@H](Oc2cccc(Cl)c2O)C1 [Example 43, 5-[(3R)-3-(3-Chloro-2-Hydroxy-phenoxy)-pyrrolidin-1-yl]-5-methyl-2,2-diphenyl-hexanoic acid amide] — 4.1-fold higher, 5.35 nM
- Cc1cc(O)c(C)c(O[C@H]2CCN(C(C)(C)CCC(C(N)=O)(c3ccccc3)c3ccccc3)C2)c1 [Example 44, 5-[(3S)-3-(3-Hydroxy-2,5-dimethyl-phenoxy)-pyrrolidin-1-yl]-5-methyl-2,2-diphenyl-hexanoic acid amide] — 24-fold higher, 32.2 nM
- CC(C)(CCC(C(N)=O)(c1ccccc1)c1ccccc1)N1CC[C@H](Oc2cc(O)cc(F)c2)C1 [Example 46, 5-[(3S)-3-(3-Fluoro-5-Hydroxy-phenoxy)-pyrrolidin-1-yl]-5-methyl-2,2-diphenyl-hexanoic acid amide] — within 1.5-fold, 1.74 nM
- CC(C)(CCC(C(N)=O)(c1ccccc1)c1ccccc1)N1CC[C@@H](Oc2cc(O)cc(C(F)(F)F)c2)C1 [Example 49, 5-[(3R)-3-(3-Hydroxy-5-trifluoromethyl-phenoxy)-pyrrolidin-1-yl]-5-methyl-2,2-diphenyl-hexanoic acid amide] — 37-fold higher, 48.5 nM
- COc1cc(O[C@H]2CCN(C(C)(C)CCC(C(N)=O)(c3ccccc3)c3ccccc3)C2)ccc1F [Example 50, 5-[(3S)-3-(4-Fluoro-3-Methoxy-phenoxy)-pyrrolidin-1-yl]-5-methyl-2,2-diphenyl-hexanoic acid amide] — 2.4-fold higher, 3.18 nM
- COc1cccc(O[C@H]2CCN(C(C)(C)CCC(C(N)=O)(c3ccccc3)c3ccccc3)C2)c1F [Example 51, 5-[(3S)-3-(2-Fluoro-3-Methoxy-phenoxy)-pyrrolidin-1-yl]-5-methyl-2,2-diphenyl-hexanoic acid amide] — 2.1-fold lower, 0.623 nM
- CC(C)(CCC(C(N)=O)(c1ccccc1)c1ccccc1)N1CC[C@H](Oc2ccc(F)c(O)c2)C1 [Example 52, 5-[(3S)-3-(4-Fluoro-3-Hydroxy-phenoxy)-pyrrolidin-1-yl]-5-methyl-2,2-diphenyl-hexanoic acid amide] — 1.6-fold higher, 2.16 nM
